For nine compounds, GI50 and TGI results are on record in PubChem BioAssay (NCI).

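96-well plates; 48 h exposure; 5 concentrations. Endpoints by linear interpolation between flanking doses. Not reached: highest tested concentration assigned. Here, GI50 denotes the concentration required for 50% inhibition of growth. The concentration for full growth arrest is given as TGI.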

Test systems include IGROV1 ovarian; MDA-MB-231 breast; MALME-3M melanoma; UO-31 renal; SK-MEL-2 melanoma; OVCAR-8 ovarian; K-562 leukemia; MDA-MB-435; OVCAR-3 ovarian; UACC-62 melanoma.
Test in all cases: inhibition of tumour cell growth, NCI panel, 48 h

As to `CC1(C)CC[C@]2(C(=O)O)CC[C@]3(C)C(=CC[C@@H]4[C@@]5(C)C/C(=C/c6cccnc6)[C@H](O)C(C)(C)[C@@H]5CC[C@]43C)[C@@H]2C1`, the GI50 in the experiment on IGROV1 ovarian is 5.13 µM; with MDA-MB-231 breast it was 14.9 µM; with MALME-3M melanoma, 13.4 µM; in the experiment with UO-31 renal it was 4.64 µM; with SK-MEL-2 melanoma, 17 µM; with OVCAR-8 ovarian, 9.47 µM. Moreover, the GI50 was 3.1 µM in the experiment on K-562 leukemia, 15.2 µM in the experiment on MDA-MB-435, 7.08 µM in the experiment with OVCAR-3 ovarian and 4.72 µM in the experiment with UACC-62 melanoma. Further, the TGI in the experiment with IGROV1 ovarian is greater than 100 µM; in the experiment with MDA-MB-231 breast it was 57.3 µM; in the experiment on MALME-3M melanoma, 36.2 µM; in the experiment on UO-31 renal it was 19.2 µM; in the experiment on SK-MEL-2 melanoma, 66.1 µM; with OVCAR-8 ovarian, greater than 100 µM. For the same compound, the TGI was greater than 100 µM in the experiment on K-562 leukemia, greater than 100 µM with MDA-MB-435, 25.6 µM in the experiment with OVCAR-3 ovarian and 36.4 µM in the experiment on UACC-62 melanoma.

For the compound `FC(F)(F)c1ccc(-c2cnc(-c3nn[nH]n3)nc2NC2CCCCCC2)cc1`, the GI50 in the experiment with IGROV1 ovarian, with MDA-MB-231 breast, in the experiment on MALME-3M melanoma, in the experiment on UO-31 renal, with SK-MEL-2 melanoma and in the experiment with OVCAR-8 ovarian was greater than 10 µM each time. The GI50 with K-562 leukemia, in the experiment on MDA-MB-435, in the experiment with OVCAR-3 ovarian and with UACC-62 melanoma was greater than 10 µM each time. The TGI in the experiment with IGROV1 ovarian, in the experiment with MDA-MB-231 breast, in the experiment with MALME-3M melanoma, with UO-31 renal, in the experiment with SK-MEL-2 melanoma and with OVCAR-8 ovarian was greater than 10 µM in each case. Besides, the TGI with K-562 leukemia, in the experiment on MDA-MB-435, with OVCAR-3 ovarian and in the experiment with UACC-62 melanoma was greater than 10 µM throughout.

`c1c[nH]c(CN2CCN(Cc3ncc[nH]3)CC2)n1`: the TGI with IGROV1 ovarian, in the experiment on MDA-MB-231 breast, in the experiment on MALME-3M melanoma, with UO-31 renal, in the experiment on SK-MEL-2 melanoma and with OVCAR-8 ovarian was greater than 100 µM each time. Besides, the TGI in the experiment on MDA-MB-435, in the experiment on OVCAR-3 ovarian and with UACC-62 melanoma was greater than 100 µM each time.

For the compound `C=C(C)[C@@H]1CC[C@]2(C(=O)OC)CC[C@]3(C)[C@H](CC[C@@H]4[C@@]5(C)CC/C(=N\OCCC(=NCCC#N)NOCCC#N)C(C)(C)[C@@H]5CC[C@]43C)[C@@H]12`, the GI50 in the experiment on IGROV1 ovarian was 14.9 µM; in the experiment on MDA-MB-231 breast it was 10.3 µM; in the experiment with MALME-3M melanoma it was 11.8 µM; with UO-31 renal it was 15.6 µM; with SK-MEL-2 melanoma it was 13.8 µM; with OVCAR-8 ovarian, 9.66 µM. Besides, the GI50 is 2.23 µM in the experiment with K-562 leukemia, 9.7 µM with MDA-MB-435, 5.17 µM in the experiment with OVCAR-3 ovarian and 2.32 µM with UACC-62 melanoma. Besides, the TGI with IGROV1 ovarian, in the experiment on MDA-MB-231 breast, in the experiment on MALME-3M melanoma, in the experiment with UO-31 renal, in the experiment with SK-MEL-2 melanoma and in the experiment with OVCAR-8 ovarian was greater than 50 µM throughout. Besides, the TGI in the experiment with K-562 leukemia is greater than 50 µM; in the experiment with MDA-MB-435 it was greater than 50 µM; with OVCAR-3 ovarian, 15.8 µM; in the experiment on UACC-62 melanoma, 12.6 µM.

As to `O=C(/C=C/c1c[nH]c2ccccc12)c1ccccc1O`, the TGI with IGROV1 ovarian was 36.4 µM; in the experiment with MDA-MB-231 breast it was 18.4 µM; in the experiment with MALME-3M melanoma, 29.3 µM; in the experiment with UO-31 renal it was 17.6 µM; in the experiment on SK-MEL-2 melanoma it was 18.6 µM; in the experiment on OVCAR-8 ovarian, 39.2 µM. The TGI was greater than 100 µM in the experiment with K-562 leukemia, 27.9 µM with MDA-MB-435, 20.3 µM in the experiment on OVCAR-3 ovarian and 21 µM in the experiment with UACC-62 melanoma.

As to `CC(C)CC(=O)O[C@H]1C(=O)O[C@@H]2C[C@H]3[C@H](C)C(=O)C(O[C@@H]4O[C@H](CO)[C@@H](O)[C@H](O)[C@H]4O)=C[C@]3(C)[C@H]3[C@@H](O)[C@H](O)[C@]4(C(=O)O)OC[C@]32[C@@H]14`, the GI50 was 35.4 µM in the experiment with IGROV1 ovarian; greater than 100 µM in the experiment on MDA-MB-231 breast; 22.8 µM with MALME-3M melanoma; greater than 100 µM with OVCAR-8 ovarian; 24 µM with K-562 leukemia; 36.4 µM in the experiment on OVCAR-3 ovarian. Further, the TGI in the experiment with IGROV1 ovarian was greater than 100 µM; in the experiment with MDA-MB-231 breast it was greater than 100 µM; in the experiment with MALME-3M melanoma it was 56.3 µM; in the experiment on UO-31 renal it was greater than 100 µM; in the experiment with OVCAR-8 ovarian it was greater than 100 µM; in the experiment with K-562 leukemia it was greater than 100 µM. Besides, the TGI in the experiment with MDA-MB-435, in the experiment with OVCAR-3 ovarian and with UACC-62 melanoma was greater than 100 µM each time.

For `CC(=O)O[C@@H]1[C@H]2O[C@H]2[C@H]2O[C@@]2(COC(=O)c2ccccc2)[C@H]1OC(C)=O`, the TGI with IGROV1 ovarian, in the experiment with MDA-MB-231 breast, in the experiment on MALME-3M melanoma, in the experiment on UO-31 renal, in the experiment on SK-MEL-2 melanoma and with OVCAR-8 ovarian was greater than 100 µM each time. For the same compound, the TGI in the experiment on K-562 leukemia, in the experiment with MDA-MB-435, in the experiment on OVCAR-3 ovarian and in the experiment on UACC-62 melanoma was greater than 100 µM in each case.

For `COc1cc(C(=O)N[C@@H]2CCCN(C)C2)ccc1Nc1ncc2c(n1)N(C1CCCC1)CC(C)(C)C(=O)N2C`, the GI50 in the experiment on IGROV1 ovarian is 0.396 µM; in the experiment on MDA-MB-231 breast, 1.56 µM; in the experiment on MALME-3M melanoma it was 2.03 µM; in the experiment on UO-31 renal it was 1.96 µM; in the experiment on OVCAR-8 ovarian it was 0.0541 µM; in the experiment with K-562 leukemia, 0.0378 µM. Also, the GI50 was 0.0442 µM in the experiment with OVCAR-3 ovarian and 0.153 µM in the experiment with UACC-62 melanoma. Also, the TGI with IGROV1 ovarian stood at 21.7 µM; in the experiment on MDA-MB-231 breast, 15.6 µM; in the experiment on MALME-3M melanoma it was 10.6 µM; with UO-31 renal it was 16.1 µM; in the experiment on OVCAR-8 ovarian, 16.8 µM; with K-562 leukemia it was 3.19 µM. Moreover, the figures for the TGI with OVCAR-3 ovarian and in the experiment on UACC-62 melanoma were 16.1 µM and 15.5 µM, respectively.

On to `COc1ncc(-c2ccc3nc(N)n(-c4ccccc4C(F)(F)F)c(=O)c3c2)cc1S(=O)(=O)Nc1ccc(F)cc1F`, for which the GI50 is 1.15 µM with IGROV1 ovarian; 0.217 µM in the experiment with MDA-MB-231 breast; 6.53 µM with MALME-3M melanoma; 2.28 µM in the experiment with SK-MEL-2 melanoma; 3.55 µM in the experiment on OVCAR-8 ovarian; 5.73 µM with K-562 leukemia. The GI50 with MDA-MB-435 was 1.11 µM; in the experiment on OVCAR-3 ovarian, 0.369 µM; in the experiment with UACC-62 melanoma, 3.06 µM. The TGI in the experiment on IGROV1 ovarian was greater than 100 µM; with MDA-MB-231 breast, 0.755 µM; in the experiment with MALME-3M melanoma it was 34.4 µM; in the experiment on SK-MEL-2 melanoma, 11.9 µM; in the experiment on OVCAR-8 ovarian it was greater than 100 µM; with K-562 leukemia it was greater than 100 µM. The TGI with MDA-MB-435 is 4.28 µM; in the experiment on OVCAR-3 ovarian, 3.75 µM; in the experiment on UACC-62 melanoma it was 9.59 µM.
